Source: patent publication US9416115B2, “Fused heterocyclic compounds as ion channel modulators” (Gilead Sciences, Inc., priority 2013, dated 2016)

Experiments:
hNav1.1 (SCN1A) = hNav1.1 (SCN1A) (Homo sapiens, UniProt P35498); assay: Use-dependent inhibition of the CNS Nav1.1 sodium channel; assay type: cell-based; details: use-dependent block, 25 Hz, pulse 20, read-out: Nav1.1 UDB 25 Hz 10 uM
Procedure: HEK-293 cells stably expressing wild-type (WT) hNav1.1 (SCN1A, NCBI# AB09354) were obtained from Millipore (Cat. # CYL3009) were used to record INa. Cells are maintained with standard tissue culture procedures and stable channel expression is maintained with 400 ug/mL G418 in the culture medium. Unless otherwise noted, all reagents are purchased from Sigma-Aldrich (St Louis, Mo., U.S.A.).
(§1) Assays measuring Use-Dependent Block (UDB) of Nav1.2 are performed on an automated electrophysiology platform, QPatch 16X or QPatch HT (Sophion Bioscience, Copenhagen, Denmark), using the whole cell patch clamp technique to measure currents through the cell membrane. Series resistance compensation is set to 100% and series resistance and whole-cell compensation are performed automatically. Currents stored in the Sophion Bioscience Oracle database (Sophion Bioscience, Copenhagen, Denmark). Analysis is performed using QPatch Assay software and data are compiled in Excel 2010 (Microsoft, Seattle, Wash., U.S.A.).
(§2) The internal (pipette) solution consists of (in mM) 105 CsF, 10 NaF, 20 CsCl, 2 EGTA, 10 HEPES, 10 Dextrose with a pH of 7.35 and osmolarity of 300 mOsmol/kg. The external (bath) solution contains in (mM): 145 NaCl, 4 KCl, 1.8 CaCl2, 1 MgCl2, 10 dextrose, 10 HEPES, with a pH of 7.35 and osmolarity of 310 mOsmol/kg. Experiments are carried out at 23-25° C.
(§3) Compound stocks are routinely made by the Gilead Sample Bank in vials to 10 mM in dimethyl sulfoxide (DMSO). In some cases, when compounds are not soluble in DMSO, they are made in 100% ethanol. Stocks are sonicated as necessary. […]
(§4) Cells are allowed to stabilize for 10 min after establishment of the whole-cell configuration before current is measured. The test compound is applied 2 times at 60 second intervals. After the second compound addition, a 200 second wait period was imposed to allow for equilibration. Leak currents are subtracted by using an online P/4 procedure and all currents are low-pass Bessel filtered at 5 kHz and digitized at […].
Use-dependent block of Nav1.2 peak current is measured during pulse number 20 of a voltage pulse train (0 mV, 20 ms, 20 pulses, 25 Hz) from a holding potential of −120 mV. Currents are normalized to the peak current recorded in response to the first pulse in each frequency train. The voltage protocol for UDB was performed in the absence and presence of compound and percentage inhibition was calculated with respect to the compound free condition. Results are presented as mean percentage inhibition and data analysis is performed using QPatch Assay Software 4.0, and Excel 2002 (Microsoft, Seattle, Wash., U.S.A.).

hNaV1.2 (SCN2A) = molecular target: T1, hNaV1.2 (SCN2A) (Homo sapiens, UniProt Q99250); assay: Use-dependent inhibition of the CNS Nav1.2 sodium channel; assay type: cell-based; details: use-dependent block, 25 Hz, pulse 20, read-out: Nav1.2 UDB 25 Hz 10 uM
T1 construct: expressed in transfected cells
T1 sequence (Q99250 whole entry): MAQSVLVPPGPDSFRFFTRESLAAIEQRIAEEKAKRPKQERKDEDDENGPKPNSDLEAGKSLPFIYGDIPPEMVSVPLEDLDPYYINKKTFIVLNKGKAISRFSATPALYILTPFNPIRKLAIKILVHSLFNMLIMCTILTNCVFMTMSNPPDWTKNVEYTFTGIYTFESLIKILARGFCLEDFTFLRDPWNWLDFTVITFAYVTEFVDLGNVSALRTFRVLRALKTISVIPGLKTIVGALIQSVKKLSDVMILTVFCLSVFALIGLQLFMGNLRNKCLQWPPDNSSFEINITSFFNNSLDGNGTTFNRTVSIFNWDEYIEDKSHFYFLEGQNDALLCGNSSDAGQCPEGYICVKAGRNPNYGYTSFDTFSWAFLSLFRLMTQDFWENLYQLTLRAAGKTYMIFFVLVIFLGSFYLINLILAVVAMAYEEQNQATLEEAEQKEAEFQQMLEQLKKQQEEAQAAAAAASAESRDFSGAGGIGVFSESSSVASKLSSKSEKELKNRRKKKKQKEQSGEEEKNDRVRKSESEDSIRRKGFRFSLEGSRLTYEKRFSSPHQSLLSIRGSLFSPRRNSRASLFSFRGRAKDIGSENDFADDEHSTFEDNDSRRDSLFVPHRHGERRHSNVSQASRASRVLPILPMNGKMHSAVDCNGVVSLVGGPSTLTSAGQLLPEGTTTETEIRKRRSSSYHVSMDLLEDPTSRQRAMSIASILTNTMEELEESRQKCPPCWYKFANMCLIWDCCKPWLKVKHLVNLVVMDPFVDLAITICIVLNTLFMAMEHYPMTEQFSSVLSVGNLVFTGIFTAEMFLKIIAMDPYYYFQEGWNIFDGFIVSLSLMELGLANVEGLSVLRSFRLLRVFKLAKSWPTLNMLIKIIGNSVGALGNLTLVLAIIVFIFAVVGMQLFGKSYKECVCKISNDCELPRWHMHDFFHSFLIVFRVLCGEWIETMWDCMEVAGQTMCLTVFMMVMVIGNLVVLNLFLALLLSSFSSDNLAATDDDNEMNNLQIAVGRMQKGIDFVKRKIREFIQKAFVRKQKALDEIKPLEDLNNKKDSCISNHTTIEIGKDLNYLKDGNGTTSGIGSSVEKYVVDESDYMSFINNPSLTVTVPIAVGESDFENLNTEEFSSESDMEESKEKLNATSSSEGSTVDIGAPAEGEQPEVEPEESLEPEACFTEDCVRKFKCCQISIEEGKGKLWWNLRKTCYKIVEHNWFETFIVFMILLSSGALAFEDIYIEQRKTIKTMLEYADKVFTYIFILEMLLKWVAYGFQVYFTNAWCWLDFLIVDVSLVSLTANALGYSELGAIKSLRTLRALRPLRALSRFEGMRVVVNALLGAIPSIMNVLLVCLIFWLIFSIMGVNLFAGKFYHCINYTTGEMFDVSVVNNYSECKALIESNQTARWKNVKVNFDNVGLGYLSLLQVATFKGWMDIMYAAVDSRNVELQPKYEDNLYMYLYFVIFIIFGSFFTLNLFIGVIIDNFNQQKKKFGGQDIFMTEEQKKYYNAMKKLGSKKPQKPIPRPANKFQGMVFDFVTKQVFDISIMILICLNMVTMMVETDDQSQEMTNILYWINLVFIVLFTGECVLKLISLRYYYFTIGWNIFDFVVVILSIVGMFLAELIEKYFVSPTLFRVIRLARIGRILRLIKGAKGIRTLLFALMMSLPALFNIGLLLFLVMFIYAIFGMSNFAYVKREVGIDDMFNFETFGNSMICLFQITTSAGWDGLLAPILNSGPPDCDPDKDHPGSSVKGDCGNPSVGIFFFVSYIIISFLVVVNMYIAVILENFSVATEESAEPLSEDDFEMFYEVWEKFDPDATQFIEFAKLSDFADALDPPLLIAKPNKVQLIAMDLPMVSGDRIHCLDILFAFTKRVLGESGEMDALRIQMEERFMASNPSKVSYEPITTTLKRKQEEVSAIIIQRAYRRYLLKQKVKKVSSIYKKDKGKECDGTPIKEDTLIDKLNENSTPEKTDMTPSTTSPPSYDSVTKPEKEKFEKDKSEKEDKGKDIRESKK
T1 sequence (Q07699 19-218 partner): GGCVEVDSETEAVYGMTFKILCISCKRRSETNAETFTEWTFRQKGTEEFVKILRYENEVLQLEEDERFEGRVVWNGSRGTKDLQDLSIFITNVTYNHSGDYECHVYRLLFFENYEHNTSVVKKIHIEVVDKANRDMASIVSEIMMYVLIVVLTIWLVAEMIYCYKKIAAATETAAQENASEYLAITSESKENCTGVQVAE
T1 sequence (O60939 30-215 partner): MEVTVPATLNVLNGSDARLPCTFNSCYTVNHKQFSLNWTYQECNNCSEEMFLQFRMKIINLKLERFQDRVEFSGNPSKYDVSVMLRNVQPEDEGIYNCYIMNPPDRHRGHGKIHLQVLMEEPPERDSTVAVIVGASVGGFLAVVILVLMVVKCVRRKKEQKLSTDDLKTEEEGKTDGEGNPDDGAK
Procedure: HEK-293 cells stably expressing wild-type (WT) hNaV1.2 (SCN2A NCBI # NM_021007.2, SCN1B NCBI # NM_001037.4, SCN2B NCBI # NM_004588.2) were used to record INa. Cells are maintained with standard tissue culture procedures and stable channel expression is maintained with 800 ug/mL G418 and 3 ug/mL Puromycin in the culture medium. Unless otherwise noted, all reagents are purchased from Sigma-Aldrich (St Louis, Mo., U.S.A.).
as §1, §2, §3, §4
Results are presented as mean percentage inhibition.
Use-dependent block of Nav1.2 peak current is measured during pulse number 20 of a voltage pulse train (0 mV, 20 ms, 20 pulses, 25 Hz) from a holding potential of −120 mV.
Currents are normalized to the peak current recorded in response to the first pulse in each frequency train. The voltage protocol for UDB was performed in the absence and presence of compound and percentage inhibition was calculated with respect to the compound free condition.

Row | SMILES | inhibition at 10 µM (hNav1.1 (SCN1A)) | inhibition at 10 µM (hNaV1.2 (SCN2A))
1 | COc1cc2onc(OCc3ncccn3)c2cc1-c1ccc(OC(F)(F)F)c(C)c1 [Example 14, 6-methoxy-5-(3-methyl-4-(trifluoromethoxy)phenyl)-3-(pyrimidin-2-ylmethoxy)benzo[d]isoxazole] | 34.5% | 9.6%
2 | Cc1cn(-c2noc3ccc(-c4ccc(OC(F)(F)F)cc4)cc23)cn1 [Example 139, 3-(4-methyl-1H-imidazol-1-yl)-5-(4-(trifluoromethoxy)phenyl)benzo[d]isoxazole] | 8.8% | 26.1%
3 | COc1cc2onc(OCc3ncccn3)c2cc1-c1ccc(F)c(Cl)c1 [Example 15, 5-(3-chloro-4-fluorophenyl)-6-methoxy-3-(pyrimidin-2-ylmethoxy)benzo[d]isoxazole] | < 5% | < 5%
4 | O=C1NCC[C@H]1Oc1noc2ccc(-c3ccc(OC(F)(F)F)cc3)cc12 [Example 72, (R)-3-((5-(4-(trifluoromethoxy)phenyl)benzo[d]isoxazol-3-yl)oxy)pyrrolidin-2-one] | 78.1% | 75.4%
5 | Cc1ccnc(COc2noc3ccc(-c4ccc(OC(F)(F)F)cc4)cc23)n1 [Example 5, 3-((4-methylpyrimidin-2-yl)methoxy)-5-(4-(trifluoromethoxy)phenyl)benzo[d]isoxazole] | < 5% | < 5%
6 | CC(C)[C@H](N)COc1noc2ccc(-c3ccc(OC(F)(F)F)cc3)cc12 [Example 118, (S)-3-methyl-1-((5-(4-(trifluoromethoxy)phenyl)benzo[d]isoxazol-3-yl)oxy)butan-2-amine] | 89.4% | 90.4%
7 | COc1cc2onc(OCc3ncccn3)c2cc1-c1ccc(Cl)c(F)c1 [Example 13, 5-(4-chloro-3-fluorophenyl)-6-methoxy-3-(pyrimidin-2-ylmethoxy)benzo[d]isoxazole] | 30.8% | 5.6%
8 | FC(F)(F)Oc1ccc(-c2ccc3onc(N4CCOCC4)c3c2)cc1 [Example 130, 3-morpholino-5-(4-(trifluoromethoxy)phenyl)benzo[d]isoxazole] | < 5% | < 5%
9 | FC(F)(F)Oc1ccc(-c2ccc3onc(-n4cncn4)c3c2)cc1 [Example 136, 3-(1H-1,2,4-triazol-1-yl)-5-(4-(trifluoromethoxy)phenyl)benzo[d]isoxazole] | < 5% | < 5%
10 | CN1CCC[C@H]1COc1noc2ccc(-c3ccc(OC(F)(F)F)cc3)cc12 [Example 71, (S)-3-((1-methylpyrrolidin-2-yl)methoxy)-5-(4-(trifluoromethoxy)phenyl)benzo[d]isoxazole] | 93.8% | 89.6%
11 | COc1cc(OC(F)(F)F)ccc1-c1ccc2onc(OCc3ncccn3)c2c1 [Example 4, 5-(2-methoxy-4-(trifluoromethoxy)phenyl)-3-(pyrimidin-2-ylmethoxy)benzo[d]isoxazole] | 14.2% | 13.9%
12 | Cc1cc(-c2ccc(OC(F)(F)F)cc2)cc2c(OCc3cn(C)nn3)noc12 [Example 87, 7-methyl-3-((1-methyl-1H-1,2,3-triazol-4-yl)methoxy)-5-(4-(trifluoromethoxy)phenyl)benzo[d]isoxazole] | 90.8% | 87%
13 | FC(F)(F)Oc1ccc(-c2ccc3onc(NCc4ncccn4)c3c2)cc1 [Example 126, N-(pyrimidin-2-ylmethyl)-5-(4-(trifluoromethoxy)phenyl)benzo[d]isoxazol-3-amine] | < 5% | < 5%
14 | OCc1cn(-c2noc3ccc(-c4ccc(OC(F)(F)F)cc4)cc23)cn1 [Example 146, (1-(5-(4-(trifluoromethoxy)phenyl)benzo[d]isoxazol-3-yl)-1H-imidazol-4-yl)methanol] | 87.3% | 75.8%
15 | FC(F)(F)Oc1ccc(-c2ccc3onc(OC[C@@H]4COCCN4)c3c2)cc1 [Example 113, (S)-3-(morpholin-3-ylmethoxy)-5-(4-(trifluoromethoxy)phenyl)benzo[d]isoxazole] | 88.4% | 91.2%
16 | FC(F)(F)Oc1ccc(-c2ccc3onc(-n4cnc(-c5ccccc5)c4)c3c2)cc1 [Example 142, 3-(4-phenyl-1H-imidazol-1-yl)-5-(4-(trifluoromethoxy)phenyl)benzo[d]isoxazole] | 59% | 65%
17 | Cc1cc(-c2ccc(OC(F)(F)F)cc2)cc2c(OCc3ncccn3)noc12 [Example 16, 7-methyl-3-(pyrimidin-2-ylmethoxy)-5-(4-(trifluoromethoxy)phenyl)benzo[d]isoxazole] | 27.3% | 18%
18 | CN(C)c1noc2ccc(-c3ccc(OC(F)(F)F)cc3)cc12 [Example 133, N,N-dimethyl-5-(4-(trifluoromethoxy)phenyl)benzo[d]isoxazol-3-amine] | 22.1% | 29.2%
19 | CCn1ccnc1COc1noc2ccc(-c3ccc(OC(F)(F)F)cc3)cc12 [Example 47, 3-((1-ethyl-1H-imidazol-2-yl)methoxy)-5-(4-(trifluoromethoxy)phenyl)benzo[d]isoxazole] | 55.5% | 31.5%
20 | FC(F)(F)Oc1ccc(-c2ccc3onc(OCc4cnccn4)c3c2)cc1 [Example 151, 3-(pyrazin-2-ylmethoxy)-5-(4-(trifluoromethoxy)phenyl)benzo[d]isoxazole] | 20% | 18.6%
21 | Cc1cc(-c2ccc3onc(OCc4ncccn4)c3c2)ccc1OC(F)(F)F [Example 7, 5-(3-methyl-4-(trifluoromethoxy)phenyl)-3-(pyrimidin-2-ylmethoxy)benzo[d]isoxazole] | < 5% | < 5%
22 | FC(F)(F)Oc1ccc(-c2ccc3onc(-n4cnc(Cl)c4)c3c2)cc1 [Example 140, 3-(4-chloro-1H-imidazol-1-yl)-5-(4-(trifluoromethoxy)phenyl)benzo[d]isoxazole] | < 5% | < 5%
23 | CC(=O)N1CCC[C@H]1COc1noc2ccc(-c3ccc(OC(F)(F)F)cc3)cc12 [Example 109, (S)-1-(2-(((5-(4-(trifluoromethoxy)phenyl)benzo[d]isoxazol-3-yl)oxy)methyl)pyrrolidin-1-yl)ethan-1-one] | 57% | 39.3%
24 | FC(F)(F)Oc1ccc(-c2ccc3onc(OCCNc4ncccn4)c3c2)cc1 [Example 123, N-(2-((5-(4-(trifluoromethoxy)phenyl)benzo[d]isoxazol-3-yl)oxy)ethyl)pyrimidin-2-amine] | < 5% | < 5%
25 | Cc1nccnc1COc1noc2ccc(-c3ccc(OC(F)(F)F)cc3)cc12 [Example 152, 3-((3-methylpyrazin-2-yl)methoxy)-5-(4-(trifluoromethoxy)phenyl)benzo[d]isoxazole] | 11.4% | 13.8%
26 | CC(C)(C)c1cn(-c2noc3ccc(-c4ccc(OC(F)(F)F)cc4)cc23)cn1 [Example 143, 3-(4-(tert-butyl)-1H-imidazol-1-yl)-5-(4-(trifluoromethoxy)phenyl)benzo[d]isoxazole] | 66.6% | 57.1%
27 | Cc1ncn(-c2noc3ccc(-c4ccc(OC(F)(F)F)cc4)cc23)n1 [Example 141, 3-(3-methyl-1H-1,2,4-triazol-1-yl)-5-(4-(trifluoromethoxy)phenyl)benzo[d]isoxazole] | 31.5% | 19.9%
